# Assay: Aqueous solubility of extractants by qNMR
# Format: physicochemical
# Details: water, thermodynamic from solid; experimentally determined; in D2O by qNMR
# Protocol: A 1 mL volumetric flask was charged with 10–15 mg of the extractant and 1 mL of D2O. The resulting suspension was sonicated for 30 min and the content was centrifuged, filtered through a 0.45 µm syringe filter, and transferred into an NMR tube. A sealed capillary containing an external calibrant (acetanilide for ^1H qNMR and triphenylphosphine for ^31P qNMR) was inserted into the NMR tube and the solubility of extractants 1–9 was determined from their ^1H or ^31P NMR spectra using the formula: Cx = (Ix/Ical) × (Ncal/Nx) × Ccal, where I, N, and C are the integral area, number of nuclei, and the concentration of the extractant (x) and the calibrant (cal), respectively.
row,solubility at 30 min [µM],Structure (SMILES)
1,1730,COCCOCCOP(=O)(O)C(Nc1cc(C(F)(F)F)cc(C(F)(F)F)c1)c1cc(C(F)(F)F)cc(C(F)(F)F)c1 (stereo not drawn) [Extractant 9]
2,1600,COCCOCCOP(=O)(O)C(Nc1cc(C(F)(F)F)cc(C(F)(F)F)c1)c1ccc(C(F)(F)F)cc1 (stereo not drawn) [Extractant 8]
3,80,CCCCCCCCOP(=O)(O)C(Nc1cc(C(F)(F)F)cc(C(F)(F)F)c1)c1ccc(C(C)(C)C)cc1 (stereo not drawn) [Extractant 7]

# Further lines, the compound ahead of its results:
row,Structure (SMILES),solubility at 30 min [µM]
1,CCCCCCCCOP(=O)(O)C(Nc1ccc(OC)cc1)c1ccc(C(F)(F)F)cc1 (stereo not drawn) [Extractant 5],40
2,COP(=O)(O)C(Nc1ccc(C(F)(F)F)cc1)c1cc(C(F)(F)F)cc(C(F)(F)F)c1 (stereo not drawn) [Extractant 6],2600
3,CCCCCCCCOP(=O)(O)C(Nc1ccc(C(F)(F)F)cc1)c1ccc(C(C)(C)C)cc1 (stereo not drawn) [Extractant 4],80
4,COP(=O)(O)C(Nc1ccc(C(C)(C)C)cc1)c1ccc(C(C)(C)C)cc1 (stereo not drawn) [Extractant 2],100
5,CCCCCCCCOP(=O)(O)C(Nc1ccc(OC)cc1)c1cccs1 (stereo not drawn) [Extractant 3],250
6,"CCCCCCCCOP(=O)(O)C(Nc1ccccc1)c1ccccc1 (stereo not drawn) [Extractant 1, reference compound]",220

# From paper PMC9735965, “Recovery of Gallium-68 and Zinc from HNO3-Based Solution by Liquid–Liquid Extraction with Arylamino Phosphonates” (Molecules, 2022)
